Results published in publication PMC9598656, “In Vitro Activity of Robenidine Analogues NCL259 and NCL265 against Gram-Negative Pathogens” (Antibiotics, 2022).

Experiments:
[1] = tested on: P. aeruginosa ATCC 27853; assay: MIC, broth micro-dilution; format: cell-based, Pseudomonas aeruginosa; settings: Pseudomonas aeruginosa, ATCC27853, read-out: MIC, Single Drug
Description: (§1) A variety of Gram-negative reference strains (E. coli ATCC 25922, E. coli ATCC 10763, P. aeruginosa PAO1, P. aeruginosa ATCC 27853, A. baumannii ATCC 12457, A. baumannii ATCC 19606, K. pneumoniae ATCC 4352 and K. pneumoniae ATCC 33495) were used for initial screening and combination testing with PMB. The organisms were speciated using biochemical testing and MALDI-TOF mass spectrometry (Bruker, Preston, VIC, Australia). Activity testing of NCL259 and NCL265 was also carried out on 51 extraintestinal clinical E. coli isolates from companion animals, and 83 porcine and bovine enterotoxigenic E. coli (ETEC) isolates from the Australian Centre for Antimicrobial Resistance Ecology collection. E. coli wild-type (BW 25113) and its mutant BW 25113∆AcrB, in which the inner membrane component AcrB of the tripartite multidrug efflux system AcrA/AcrB/TolC has been deleted, were obtained from the bacterial collection held at Health and Biomedical Innovation, Clinical and Health Sciences, The University of South Australia. All isolates were cultured on sheep blood agar (SBA) plates at 37 °C for 18 h before being subcultured into Luria Bertaini (LB) (Oxoid, Scoresby, VIC, Australia) broth and grown to A600nm = 0.5 (equivalent to approx. 1.5 × 10^8 colony-forming units (CFU)/mL).
(§2) MICs for NCL259 and NCL265 (serial two-fold dilutions commencing at 256 µg/mL) were determined (in duplicate) in round bottom 96–well microtitre trays (Sarstedt 82.1582.001), using the broth micro-dilution method recommended by the Clinical and Laboratory Standards Institute (CLSI). We have shown previously that robenidine can chelate calcium ions from cation-adjusted Mueller-Hinton broth, which causes the loss of activity of robenidine. Therefore, LB broth was used in this study. Additionally, considering the low solubility of robenidine and its analogues in aqueous solutions, two-fold serial dilutions of stock solutions of these compounds were prepared in 100% DMSO [21]. The MIC for ampicillin against each isolate was determined for each test to serve as an internal quality control. The MICs of isolates were determined by visual reading and using an EnSpire Multimode Plate Reader 2300 at A600nm.

[2] = tested on: P. aeruginosa PAO1; assay: MIC, broth micro-dilution; format: cell-based, Pseudomonas aeruginosa; settings: Pseudomonas aeruginosa, read-out: MIC, Single Drug
Description: as §1, §2

[3] = tested on: A. baumannii ATCC 12457; assay: MIC, broth micro-dilution; format: cell-based, Acinetobacter baumannii; settings: Acinetobacter baumannii, ATCC12457, read-out: MIC, Single Drug
Description: as §1, §2

[4] = tested on: A. baumannii ATCC 19606; assay: MIC, broth micro-dilution; format: cell-based, Acinetobacter baumannii; settings: Acinetobacter baumannii, ATCC19606, read-out: MIC, Single Drug
Description: as §1, §2

[5] = tested on: E. coli ATCC 10763; assay: Checkerboard assay with PMB; format: cell-based, Escherichia coli; settings: for MIC, Combination: NCL259 or NCL265 with PMB; for Combination Effect / FICI: with PMB
Description: (§3) MICs of NCL259 or NCL265 in the presence of the efflux pump inhibitor, PAβN were determined using a checkerboard assay. […] Briefly, a two-fold serial dilution of each antimicrobial solution was prepared in its appropriate solvent (e.g., DMSO for robenidine analogues and Milli-Q water for PAβN), and 1 μL of each dilution was added from wells 12 to 3 (12.8–0.25 μg/mL for robenidine analogues, and 32–2 μg/mL for PAβN). Thereafter, 89 μL of LB broth was added to each well followed by the addition of 10 μL of bacterial suspension (1–5 × 10^6 CFU/mL) to each well. In this manner, the final concentration of DMSO in each well was 1%. The plate was subsequently incubated at 37 °C for 24 h. The resazurin assay was used for assessment of drug susceptibility of NCL259 and NCL265 (Supplementary Table S1–S6). The same method was also used to test the MICs of NCL259 or NCL265 in the presence of PMB against a range of Gram-negative reference strains (E. coli ATCC 25922, E. coli ATCC 10763, P. aeruginosa PAO1, P. aeruginosa ATCC 27853, A. baumannii ATCC 12457, A. baumannii ATCC 19606, K. pneumoniae ATCC 4352 and K. pneumoniae ATCC 33495). Stock solutions were prepared prior to use (25.6–0.25 mg/mL for robenidine analogues; 12.8–0.25 mg/mL for PMB). The interaction of two antibiotics was calculated as the fractional inhibitory concentration index (FICI) using the following formula:(1) FICI=MICA in combination/MICA alone+MICB in combination/MICB alone where A is NCL259 or NCL265 and B is PAβN or PMB. According to FICI calculations, the interaction between two compounds were interpreted as follows: synergistic (FICI ≤ 0.5); additive or partially synergistic (0.5 < FICI ≤ 1); indifferent (1 < FICI ≤ 4); and antagonistic (FICI > 4), as described previously. The dose reduction index (DRI) was used to describe the difference between the effective doses of NCL259 or NCL265 in combination with PMB or PAβN in comparison to their individual doses, using the following formula:(2) DRI=MICA alone/MICA in combination
(§4) Evaluation of DRI is important clinically because it can allow the dose of a potentially toxic drug to be lowered in combination with another compound without reducing the drug’s efficacy. A DRI higher than 1 is viewed as beneficial.

[6] = tested on: E. coli ATCC 25922; assay: Checkerboard assay with PMB; format: cell-based, Escherichia coli; settings: for MIC, Combination: NCL259 or NCL265 with PMB; for Combination Effect / FICI: with PMB
Description: as §3, §4

[7] = tested on: P. aeruginosa ATCC 27853; assay: Checkerboard assay with PMB; format: cell-based, Pseudomonas aeruginosa; settings: for MIC, Combination: NCL259 or NCL265 with PMB; for Combination Effect / FICI: with PMB
Description: as §3, §4

[8] = tested on: 51 clinical ExPEC isolates from companion animals and 83 porcine and bovine ETEC isolates; assay: MIC, broth micro-dilution, all animal clinical isolates; format: cell-based, Escherichia coli; settings: ExPEC and ETEC isolates together
Description: A variety of Gram-negative reference strains (E. coli ATCC 25922, E. coli ATCC 10763, P. aeruginosa PAO1, P. aeruginosa ATCC 27853, A. baumannii ATCC 12457, A. baumannii ATCC 19606, K. pneumoniae ATCC 4352 and K. pneumoniae ATCC 33495) were used for initial screening and combination testing with PMB. The organisms were speciated using biochemical testing and MALDI-TOF mass spectrometry (Bruker, Preston, VIC, Australia). Activity testing of NCL259 and NCL265 was also carried out on 51 extraintestinal clinical E. coli isolates from companion animals, and 83 porcine and bovine enterotoxigenic E. coli (ETEC) isolates from the Australian Centre for Antimicrobial Resistance Ecology collection. […]
MICs for NCL259 and NCL265 (serial two-fold dilutions commencing at 256 µg/mL) were determined (in duplicate) in round bottom 96–well microtitre trays (Sarstedt 82.1582.001), using the broth micro-dilution method recommended by the Clinical and Laboratory Standards Institute (CLSI). […] The MIC for ampicillin against each isolate was determined for each test to serve as an internal quality control. The MICs of isolates were determined by visual reading and using an EnSpire Multimode Plate Reader 2300 at A600nm.

[9] = tested on: E. coli BW 25113 (∆AcrB); assay: MIC, efflux-pump mutant; format: cell-based, Escherichia coli; settings: for reduction of MIC in the ∆AcrB mutant compared to wild-type: E. coli BW 25113 ∆AcrB vs wild-type parent; for MIC: Escherichia coli, read-out: MIC Values
Description: as §1, §2

[10] = tested on: K. pneumoniae 13GNB–429, K. pneumoniae 13GNB–550 and K. oxytoca 13GNB–582; assay: MIC in presence of PAβN, three resistant Klebsiella isolates; format: cell-based; settings: three resistant Klebsiella spp. isolates
Description: as §3

[H]/N=C(\N)NN=C(CC1CCCCC1)c1ccc(Cl)cc1 [NCL259, (E)-2-(1-(4-chlorophenyl)-2-cyclohexylethylidene)hydrazine-1-carboximidamide]
MIC [1]: 64 µg/mL
MIC [2]: 64 µg/mL
MIC [3]: 8 µg/mL
MIC [4]: 8 µg/mL
MIC, Combination [5]: 0.25 µg/mL
Dose Reduction Index (DRI) PMB:NCL259 ([5]; PMB + NCL259): 256
Combination Effect [5]: Additivity (additive or partially synergistic, 0.5 < FICI ≤ 1)
FICI [5]: 0.504
MIC, Combination [6]: 1 µg/mL
Dose Reduction Index (DRI) PMB:NCL259 ([6]; PMB + NCL259): 16
Combination Effect [6]: Additivity (additive or partially synergistic, 0.5 < FICI ≤ 1)
FICI [6]: 0.563
MIC, Combination [7]: 2 µg/mL
Dose Reduction Index (DRI) PMB:NCL259 ([7]; PMB + NCL259): 32
Combination Effect [7]: Additivity (additive or partially synergistic, 0.5 < FICI ≤ 1)
FICI [7]: 0.531
MIC range [8]: 4 to 64 µg/mL
reduction of MIC in the ∆AcrB mutant compared to wild-type [9]: 16 fold
MIC [9]: 4 µg/mL
MIC in the presence of PAβN [10]: 8 to 16 µg/mL
reduction of MIC in the presence of PAβN [10]: 16- to 32 fold

[H]/N=C(\N)NN=C(CCCCCC)c1ccc(Cl)cc1 [NCL265, (E)-2-(1-(4-chlorophenyl)heptylidene)hydrazine-1-carboximidamide]
MIC [1]: 32 µg/mL
MIC [2]: 64 µg/mL
MIC [3]: 2 µg/mL
MIC [4]: 2 µg/mL
MIC, Combination [5]: 0.25 µg/mL
Dose Reduction Index (DRI) PMB:NCL265 ([5]; PMB + NCL265): 256
Combination Effect [5]: Synergism (synergistic, FICI ≤ 0.5)
FICI [5]: 0.254
MIC, Combination [6]: 1 µg/mL
Dose Reduction Index (DRI) PMB:NCL265 ([6]; PMB + NCL265): 4
Combination Effect [6]: Additivity (additive or partially synergistic, 0.5 < FICI ≤ 1)
FICI [6]: 0.75
MIC, Combination [7]: 0.5 µg/mL
Dose Reduction Index (DRI) PMB:NCL265 ([7]; PMB + NCL265): 64
Combination Effect [7]: Additivity (additive or partially synergistic, 0.5 < FICI ≤ 1)
FICI [7]: 0.516
MIC range [8]: 2 to 16 µg/mL
reduction of MIC in the ∆AcrB mutant compared to wild-type [9]: 16 fold
MIC [9]: 1 µg/mL
MIC in the presence of PAβN [10]: 2 to 4 µg/mL
reduction of MIC in the presence of PAβN [10]: 64- to 128 fold
